Measurements published in ChEMBL document CHEMBL3856187, “Cyclin Dependent Kinase 9 Inhibitors for Cancer Therapy” (J Med Chem, 2016).
pIC50: −log10 of the molar value.

Assays:
[1] = Cytotoxicity against human HeLa cells assessed as decrease in cell viability after 72 hrs by MTT assay; format: toxicity, cell-based
Homo sapiens = test: Anticancer activity in human AML patient assessed as improvement in remission rate at 50 mg/m2, iv for 1 to 3 days followed by cytarabine dose at 667 mg/m2/day as 72 hrs continuous infusion for 6 to 8 days and mitoxantrone at 40 mg/m2 administered on day 9; format: functional
[2] = molecular target: Cyclin-dependent kinase 5/CDK5 activator 1 (Homo sapiens, UniProt Q00535); test: Inhibition of CDK5/p25 (unknown origin); format: protein-complex assay
CDK2/Cyclin A2 [3] = molecular target: T1, CDK2/Cyclin A2 (Homo sapiens, UniProt P24941); test: Inhibition of CDK2/cyclin A (unknown origin); format: protein-complex assay
[4] = molecular target: Cyclin-dependent kinase 1/cyclin B1 (Homo sapiens, UniProt P06493); format: protein-complex assay
Description: Inhibition of CDK1/cyclin B (unknown origin)

[5] = molecular target: Cyclin-dependent kinase 7/ cyclin H (Homo sapiens, UniProt P50613); test: Inhibition of CDK7/cyclin H (unknown origin); format: protein-complex assay
[6] = molecular target: Cyclin-dependent kinase 4/G1/S-specific cyclin-E1 (Homo sapiens, UniProt P11802); test: Inhibition of CDK4/cyclin E (unknown origin); format: protein-complex assay
[7] = molecular target: Cyclin-dependent kinase 4/cyclin D1 (Homo sapiens, UniProt P11802); test: Inhibition of human N-terminal GST-tagged CDK4/cyclin D1 expressed in baculovirus infected Sf9 insect cells using retinoblastoma (792 to 928 residues) as substrate after 30 mins by gamma32P-ATP based scintillation counting analysis
CDK2/Cyclin A2 [8] = molecular target: T1, CDK2/Cyclin A2; test: Inhibition of recombinant human N-terminal GST-tagged CDK2/cyclin A expressed in baculovirus expression system using retinoblastoma (792 to 928 residues) as substrate after 30 mins by gamma32P-ATP based scintillation counting analysis
[9] = molecular target: Cyclin-dependent kinase 2/cyclin E1 (Homo sapiens, UniProt P24941); test: Inhibition of human CDK2/cyclin E expressed in baculovirus infected Sf9 insect cells using retinoblastoma (792 to 928 residues) as substrate after 30 mins by gamma32P-ATP based scintillation counting analysis
[10] = Inhibition of CDK6/cyclin D (unknown origin); parameters: species or system Homo sapiens
CDK7/Cyclin H/MNAT1 = CDK7/Cyclin H/MNAT1 (Homo sapiens, UniProt P50613); test: Inhibition of CDK7/cyclin H/MAT1 (unknown origin); format: protein-complex assay
Chain of CDK7/Cyclin H/MNAT1 (P51946 whole entry): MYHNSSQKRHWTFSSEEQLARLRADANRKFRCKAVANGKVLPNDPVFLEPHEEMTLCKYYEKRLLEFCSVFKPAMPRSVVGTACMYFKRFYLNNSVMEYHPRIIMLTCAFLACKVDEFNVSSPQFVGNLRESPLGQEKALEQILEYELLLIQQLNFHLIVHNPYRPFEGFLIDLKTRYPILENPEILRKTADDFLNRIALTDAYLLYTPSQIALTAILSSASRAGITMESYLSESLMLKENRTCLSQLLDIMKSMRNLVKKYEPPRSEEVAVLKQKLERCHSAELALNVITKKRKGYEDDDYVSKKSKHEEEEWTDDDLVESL
Chain of CDK7/Cyclin H/MNAT1 (P50613 whole entry): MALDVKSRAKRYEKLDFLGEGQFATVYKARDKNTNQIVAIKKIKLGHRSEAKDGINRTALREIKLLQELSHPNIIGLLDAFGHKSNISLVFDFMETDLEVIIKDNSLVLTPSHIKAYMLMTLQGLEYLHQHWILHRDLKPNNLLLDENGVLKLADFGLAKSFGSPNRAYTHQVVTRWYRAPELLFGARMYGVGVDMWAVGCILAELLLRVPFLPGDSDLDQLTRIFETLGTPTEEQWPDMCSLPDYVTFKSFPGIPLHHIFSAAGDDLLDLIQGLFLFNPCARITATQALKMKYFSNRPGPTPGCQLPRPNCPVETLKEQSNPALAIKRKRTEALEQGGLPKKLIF
Chain of CDK7/Cyclin H/MNAT1 (P51948 whole entry, further chain): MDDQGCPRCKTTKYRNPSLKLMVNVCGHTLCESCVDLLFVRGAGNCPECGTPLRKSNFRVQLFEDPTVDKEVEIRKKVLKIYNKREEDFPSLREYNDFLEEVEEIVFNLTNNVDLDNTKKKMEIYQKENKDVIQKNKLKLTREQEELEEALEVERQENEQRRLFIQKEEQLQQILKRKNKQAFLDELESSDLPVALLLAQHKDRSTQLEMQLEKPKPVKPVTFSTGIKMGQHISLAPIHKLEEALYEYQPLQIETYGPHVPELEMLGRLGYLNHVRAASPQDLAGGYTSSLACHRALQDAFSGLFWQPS

Chain of Cyclin-dependent kinase 1/cyclin B1 (P06493 whole entry): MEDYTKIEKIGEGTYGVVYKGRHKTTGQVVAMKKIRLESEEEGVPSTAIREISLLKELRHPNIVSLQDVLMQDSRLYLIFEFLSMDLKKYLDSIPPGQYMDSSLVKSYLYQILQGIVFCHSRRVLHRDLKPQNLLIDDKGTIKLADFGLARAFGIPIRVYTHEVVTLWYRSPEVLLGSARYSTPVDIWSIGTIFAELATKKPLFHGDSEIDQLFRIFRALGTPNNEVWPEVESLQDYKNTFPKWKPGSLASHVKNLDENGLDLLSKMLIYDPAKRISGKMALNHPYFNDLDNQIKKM
Chain of Cyclin-dependent kinase 1/cyclin B1 (P14635 whole entry, further chain): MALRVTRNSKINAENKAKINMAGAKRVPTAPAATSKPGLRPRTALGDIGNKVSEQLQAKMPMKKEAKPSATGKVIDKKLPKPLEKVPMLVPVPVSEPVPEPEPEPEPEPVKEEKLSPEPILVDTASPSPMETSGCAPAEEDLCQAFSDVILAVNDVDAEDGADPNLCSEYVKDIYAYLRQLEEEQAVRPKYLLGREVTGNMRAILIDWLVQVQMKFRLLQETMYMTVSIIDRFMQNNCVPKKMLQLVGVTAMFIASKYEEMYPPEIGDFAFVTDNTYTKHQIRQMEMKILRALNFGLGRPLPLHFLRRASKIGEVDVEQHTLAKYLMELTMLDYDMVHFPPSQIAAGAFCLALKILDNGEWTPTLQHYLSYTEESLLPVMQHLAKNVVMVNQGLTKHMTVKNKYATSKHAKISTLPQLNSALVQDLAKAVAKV
Chain of Cyclin-dependent kinase 5/CDK5 activator 1 (Q00535 whole entry): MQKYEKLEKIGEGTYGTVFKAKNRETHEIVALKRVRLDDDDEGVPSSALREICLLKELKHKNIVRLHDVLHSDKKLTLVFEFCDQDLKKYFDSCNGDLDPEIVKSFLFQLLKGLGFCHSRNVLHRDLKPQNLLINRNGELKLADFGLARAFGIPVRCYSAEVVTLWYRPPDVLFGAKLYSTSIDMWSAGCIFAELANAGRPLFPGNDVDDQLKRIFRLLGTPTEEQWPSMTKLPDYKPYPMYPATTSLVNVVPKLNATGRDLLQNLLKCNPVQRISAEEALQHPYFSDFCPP
Chain of Cyclin-dependent kinase 5/CDK5 activator 1 (Q15078 whole entry, further chain): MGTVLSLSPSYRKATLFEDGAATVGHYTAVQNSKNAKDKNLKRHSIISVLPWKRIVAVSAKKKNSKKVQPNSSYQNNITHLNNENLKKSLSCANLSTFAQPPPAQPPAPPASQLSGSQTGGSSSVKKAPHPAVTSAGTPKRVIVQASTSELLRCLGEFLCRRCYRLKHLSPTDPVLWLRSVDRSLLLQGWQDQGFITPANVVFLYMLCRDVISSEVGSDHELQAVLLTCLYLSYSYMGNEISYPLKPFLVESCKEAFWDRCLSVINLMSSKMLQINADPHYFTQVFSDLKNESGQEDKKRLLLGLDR
Chain of Cyclin-dependent kinase 7/ cyclin H (P51946 whole entry): as the sequence (P51946 whole entry) above
Chain of Cyclin-dependent kinase 7/ cyclin H (P50613 whole entry): as the sequence (P50613 whole entry) above
Chain of Cyclin-dependent kinase 4/G1/S-specific cyclin-E1 (P11802 whole entry, the tested form may be a part): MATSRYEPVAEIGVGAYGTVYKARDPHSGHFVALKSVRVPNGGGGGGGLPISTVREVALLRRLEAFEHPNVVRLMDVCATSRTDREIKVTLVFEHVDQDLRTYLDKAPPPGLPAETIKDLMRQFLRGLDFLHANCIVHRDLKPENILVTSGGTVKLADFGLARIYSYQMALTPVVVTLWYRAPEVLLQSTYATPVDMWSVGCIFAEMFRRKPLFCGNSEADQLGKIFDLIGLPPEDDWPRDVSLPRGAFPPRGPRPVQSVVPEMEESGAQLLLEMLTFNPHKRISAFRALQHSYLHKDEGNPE
Chain of Cyclin-dependent kinase 4/G1/S-specific cyclin-E1 (P24864 whole entry, further chain, the tested form may be a part): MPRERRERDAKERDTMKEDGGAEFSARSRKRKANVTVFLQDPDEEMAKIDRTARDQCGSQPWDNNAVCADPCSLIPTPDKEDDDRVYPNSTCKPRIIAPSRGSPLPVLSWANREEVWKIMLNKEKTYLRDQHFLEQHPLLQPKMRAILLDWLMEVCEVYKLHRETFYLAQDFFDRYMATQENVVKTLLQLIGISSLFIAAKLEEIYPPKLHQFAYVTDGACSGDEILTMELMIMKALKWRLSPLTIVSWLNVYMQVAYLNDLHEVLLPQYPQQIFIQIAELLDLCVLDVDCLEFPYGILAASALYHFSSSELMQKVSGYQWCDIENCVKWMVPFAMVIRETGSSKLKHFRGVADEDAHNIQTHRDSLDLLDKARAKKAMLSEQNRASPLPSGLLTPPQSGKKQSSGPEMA
Chain of Cyclin-dependent kinase 4/cyclin D1 (P11802 whole entry, the tested form may be a part): as the sequence (P11802 whole entry, the tested form may be a part) above
Chain of Cyclin-dependent kinase 4/cyclin D1 (P24385 whole entry, further chain, the tested form may be a part): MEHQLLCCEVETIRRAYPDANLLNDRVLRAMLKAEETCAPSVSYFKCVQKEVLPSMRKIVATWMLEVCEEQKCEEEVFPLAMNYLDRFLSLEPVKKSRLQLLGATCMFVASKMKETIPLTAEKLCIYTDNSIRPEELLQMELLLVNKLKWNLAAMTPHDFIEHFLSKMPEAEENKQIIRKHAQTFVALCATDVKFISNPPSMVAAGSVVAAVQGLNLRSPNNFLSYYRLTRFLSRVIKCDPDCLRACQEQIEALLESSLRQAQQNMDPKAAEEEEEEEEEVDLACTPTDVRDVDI

pIC50 [7] | pIC50 (CDK2/Cyclin A2 [8]) | pIC50 [9] | pIC50 [10] | pIC50 (CDK7/Cyclin H/MNAT1) | SMILES | CC50 at 72 h [1] [nM] | Activity (Homo sapiens) | pIC50 [2] | pIC50 (CDK2/Cyclin A2 [3]) | pIC50 [4] | pIC50 [5] | pIC50 [6]
 |  |  |  |  | CN1CC[C@H](c2c(O)cc(O)c3c(=O)cc(-c4ccccc4Cl)oc23)[C@H](O)C1 [ALVOCIDIB] | 120 | 67 - 80% |  |  |  |  | 
 |  |  |  |  | CC[C@H](Nc1nc(NCc2cnc(C)cc2C)c2ncn(C(C)C)c2n1)[C@@H](C)O [CYC-065] |  |  | 7.68 | 8.30 | 6.24 | 6.71 | 6.63
7.20 | 6.65 | 5.60 | 6.40 | 5.54 | CN1CC[C@@H](c2c(O)cc(O)c3c(=O)cc(-c4ccccc4Cl)oc23)[C@@H]1CO |  |  |  |  | 7.10 |  | 
